Consider three compounds from US20050043341A1, “3-'Hydroxy-(-4-trifluoromethylphenyl)-methyl-7-spirocyclobutyl-5,6,7 8-tetrahydroquinolin-5-ol derivatives and the use of the same as cholesterol ester transfer protein (cetp) inhibitors” (priority 2001, published 2005).

Structures are written as SMILES.

Assay [1] deals with T1, CETP (Homo sapiens, UniProt P11597).
T1 construct: CETP is obtained in partially purified form from human plasma; from tissue; host or cells: human plasma
T1 sequence (P11597 18-493): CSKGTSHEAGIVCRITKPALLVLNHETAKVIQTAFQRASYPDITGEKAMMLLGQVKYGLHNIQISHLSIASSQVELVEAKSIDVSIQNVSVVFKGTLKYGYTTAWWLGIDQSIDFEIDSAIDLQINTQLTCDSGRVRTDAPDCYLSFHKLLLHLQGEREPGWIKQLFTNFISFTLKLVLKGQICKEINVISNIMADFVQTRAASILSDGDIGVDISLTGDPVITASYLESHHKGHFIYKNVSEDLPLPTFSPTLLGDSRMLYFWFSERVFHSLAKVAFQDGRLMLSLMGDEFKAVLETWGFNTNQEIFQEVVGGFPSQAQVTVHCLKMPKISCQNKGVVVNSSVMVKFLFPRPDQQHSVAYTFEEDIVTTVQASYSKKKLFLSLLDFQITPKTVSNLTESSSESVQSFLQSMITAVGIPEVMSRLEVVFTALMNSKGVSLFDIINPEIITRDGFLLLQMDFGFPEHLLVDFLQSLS
Kind of assay: CETP fluorescence test. The following applies: CETP from human plasma, 37° C., 4 hours; read-out: IC50 (nM) Fluor. test. Format: biochemical. How it is done:
(§1) CETP is obtained in partially purified form from human plasma by differential centrifugation and column chromatography and used for the test. To this end, human plasma is adjusted to a density of 1.21 g per ml using NaBr and centrifuged at 4° C. at 50000 rpm for 18 h. The bottom fraction (d>1.21 g/ml) is applied to a Sephadex® Phenyl-Sepharose 4B (Pharmacia) column, washed with 0.15 M NaCl/0.001 M tris HCl pH 7.4 and then eluted with dist. water. Die CETP-active fractions are pooled, dialysed against 50 mM Na acetate pH 4.5 and applied to a CM-Sepharose® (Pharmacia) column. The mixture is then eluted using a linear gradient (0-1 M NaCl). The pooled CETP fractions are dialysed against 10 mM TrisHCl pH 7.4 and then further purified by chromatography on a Mono Q® column (Pharmacia).
Measurement of the CETP-catalysed transfer of a fluorescent cholesterol ester between liposomes—modified according to the procedure of Bisgaier et al., J. Lipid Res. 34, 1625 (1993).
For the production of the donor liposomes, 1 mg of cholesteryl 4,4-difluoro-5,7-dimethyl-4-bora-3a,4a-diaza-s-indacene-3-dodecanoate (cholesteryl BODIPY® FL C12, Molecular Probes) is dissolved in 600 μl of dioxane with 5.35 mg of triolein and 6.67 mg of phosphatidylcholine with gentle warming in an ultrasonic bath and this solution is added very slowly with ultrasonication to 63 ml of 50 mM tris/HCl, 150 mM NaCl, 2 mM EDTA buffer pH 7.3 at RT.
The suspension is then ultrasonicated under an N2 atmosphere for 30 minutes in the Braukson ultrasonic bath at about 50 watts, the temperature being kept at about 20° C.
The acceptor liposomes are obtained analogously from 86 mg of cholesteryl oleate, 20 mg of triolein and 100 mg of phosphatidylcholine dissolved in 1.2 ml of dioxane and 114 ml of above buffer by ultrasonication at 50 watts (20° C.) for 30 minutes.
For testing, a test mix consisting of 1 part of above buffer, 1 part of donor liposomes and 2 parts of acceptor liposomes is used.
80 μl of test mix are treated with 1-3 μg of enriched CETP fraction, obtained from human plasma by means of hydrophobic chromatography, and 2 μl of the substance to be investigated in DMSO and incubated at 37° C. for 4 hours.
The change in the fluorescence at 485/535 nm is a measure of the CE transfer; the inhibition of the transfer in comparison to the control batch without substance is determined.

In a further assay the test system is transgenic hCETP mice. Kind of assay: In vivo activity in transgenic hCETP mice (HDL). The following applies: stomach tube. The procedure: In experiments for the determination of the oral action on lipoproteins and triglycerides, test substance is administered to transgenic mice using a stomach tube (Dinchuck, Hart, Gonzalez, Karmann, Schmidt, Wirak; BBA (1995), 1295, 301). Before the start of the experiment, blood is taken from the mice retroorbitally in order to determine cholesterol and triglycerides in the serum. The serum is obtained as described above for hamsters by incubation at 4° C. overnight and subsequent centrifugation at 6000×g. […] The change in the parameters measured is expressed as the percentage change compared with the starting value.

The subject of the next assay is Syrian golden hamsters. Kind of assay: In vivo activity in Syrian golden hamsters (HDL cholesterol). The conditions noted are these: perorally. How it is done: In experiments for the determination of the oral action on lipoproteins and triglycerides, test substance dissolved in DMSO and 0.5% suspended in Tylose are administered perorally by means of a stomach tube to Syrian golden hamsters bred in-house. For the determination of the CETP activity, before the start of the experiment blood is taken by retro-orbital puncture (about 250 μl). The test substances are then administered perorally by means of a stomach tube. The control animals receive identical volumes of solvent without test substance. The feed is then withdrawn from the animals and blood is taken at various times—up to 24 hours after substance administration—by puncture of the retroorbital venous plexus.
Clotting is terminated by incubation at 4° C. overnight, then centrifugation is carried out for 10 minutes at 6000×g. The content of cholesterol and triglycerides in the serum thus obtained is determined with the aid of modified commercially obtainable enzymatic tests (Ecoline 25 Cholesterol 1.14830.0001 Merck Diagnostica, Ecoline 25 Triglycerides 1.14856.0001 Merck Diagnostica). Serum is suitably diluted using physiological saline solution.
10 μl of serum dilution are treated with 200 μl of Ecoline 25 reagent in 96-hole plates and incubated for 10 minutes at room temperature. The optical density is then determined at a wavelength of 490 nm using an automatic plate reader. The triglyceride or cholesterol concentration contained in the samples is determined with the aid of a standard curve measured in parallel.
The determination of the content of HDL cholesterol is carried out after precipitation of the ApoB-containing lipoproteins (Sigma 352-4 HDL cholesterol reagent) according to the manufacturer's instructions.

Assay [2] concerns the target T1, CETP. Kind of assay: CETP-SPA test. The conditions noted are these: 3H-cholesterol ester transfer from HDL to biotin-LDL, 37° C., 18 h. Format: biochemical. How it is done:
as §1
50 ml of fresh human EDTA plasma are adjusted to a density of 1.12 using NaBr and centrifuged at 4° C. in a Ty 65 rotor at 50000 rpm for 18 h. The upper phase is used for the obtainment of cold LDL. The lower phase is dialysed against 3×41 of PDB buffer (10 mM tris/HCl pH 7.4, […], 1 mM EDTA, 0.02% NaN3). Per 10 ml of retentate volume, 20 μl of 3H-cholesterol (Dupont NET-725; 1 μC/μl dissolved in ethanol!) is then added and the mixture is incubated at 37° C. under N2 for 72 h.
The batch is then adjusted to the density 1.21 using NaBr and centrifuged at 20° C. in a Ty 65 rotor at 50000 rpm for 18 h. The upper phase is recovered and the lipoprotein fractions are purified by gradient centrifugation. To this end, the isolated, labelled lipoprotein fraction is adjusted to a density of 1.26 using NaBr. 4 ml each of this solution are covered in centrifuged tubes (SW 40 rotor) with a layer of 4 ml of a solution of density 1.21 and 4.5 ml of a solution of 1.063 (density solutions of PDB buffer and NaBr) and then centrifuged for 24 h at 38000 rpm and 20° C. in the SW 40 rotor. The intermediate layer lying between the density 1.063 and 1.21, containing the labelled HDL, is dialysed against 3×100 volumes of PDB buffer at 4° C.
The retentate contains radiolabelled ^3H-CE-HDL, which, adjusted to about 5×10^6 cmp per ml, is used for the test.
For testing of the CETP activity, the transfer of ^3H-cholesterol ester from human HD lipoproteins to biotinylated LD lipoproteins is measured.
The reaction is ended by addition of streptavidin-SPA®beads (Amersham) and the transferred radioactivity is determined directly in a liquid scintillation counter.
In the test batch, 10 μl of HDL-^3H-cholesterol ester (˜50000 cpm) are incubated at 37° C. for 18 h with 10 μl of biotin-LDL (Amersham) in 50 mM Hepes/0.15 M NaCl/0.1% bovine serum albumin/0.05% NaN3 pH 7.4 containing 10 μl of CETP (1 mg/ml) and 3 μl of solution of the substance to be tested (dissolved in 10% DMSO/1% RSA). 200 μl of the SPA-streptavidin bead solution (TRKQ 7005) are then added, incubated further with shaking for 1 h and then measured in a scintillation counter.
Corresponding incubations with 10 μl of buffer, 10 μl of CETP at 4° C. and 10 μl of CETP at 37° C. serve as controls.
The activity transferred in the control batches with CETP at 37° C. is rated as 100% transfer. The substance concentration at which this transfer is reduced to half is specified as the IC50 value.

With `CC(C)c1nc2c(c(C3CCCC3)c1[C@@H](O)c1ccc(C(F)(F)F)cc1)[C@@H](O)CC1(CCC1)C2` [Example 69, (5S)-2-Isopropyl-4-cyclopentyl-3-[(S)-hydroxy-(4-trifluoromethylphenyl)-methyl]-7-spirocyclobutyl-5,6,7,8-tetrahydroquinolin-5-ol], the IC50 on CETP [1] was 70 nM. The “% HDL increase after 4 d (Dose: 4 × 10 mg/kg)” value in the assay on transgenic hCETP mice is on record as 28%.

In the case of `O[C@@H](c1ccc(C(F)(F)F)cc1)c1c(C2CCCC2)nc2c(c1C1CCCC1)[C@@H](O)CC1(CCC1)C2` [Example 71, (5S)-2,4-Dicyclopentyl-3-[(S)-hydroxy-(4-trifluoromethylphenyl)-methyl]-7-spirocyclobutyl-5,6,7,8-tetrahydroquinolin-5-ol], the IC50 on CETP [1] was found to be 40 nM. Also, in the assay with Syrian golden hamsters, the “% HDL increase after 24 h (Dose: 2 × 10 mg/kg)” value is on record as 14%.

`O[C@@H](c1ccc(C(F)(F)F)cc1)c1c(C2CCCC2)nc2c(c1-c1ccc(F)cc1)[C@@H](O)CC1(CCC1)C2` [Example 80, (5S)-2-Cyclopentyl-4-(4-fluorophenyl)-3-[(S)-hydroxy-(4-trifluoromethylphenyl)-methyl]-7-spirocyclobutyl-5,6,7,8-tetrahydroquinolin-5-ol]: the figures for the IC50 on CETP [1] and against CETP [2] were 9 nM and 5 nM, respectively. For the same compound, the “% HDL increase after 24 h (Dose: 2 × 10 mg/kg)” value in the assay with Syrian golden hamsters is 17%.

A word on the IC50: it is the concentration needed to halve the response being measured.
